Our source for the inhibition values is patent US9040565B2, “1H-benzimidazole-5-carboxamides as anti-inflammatory agents” (Orexo AB, priority 2008, dated 2015).

The experiment concerns the target T1, recombinant human mPGES-1 (Homo sapiens, UniProt O14684).
T1 construct: made in house; host or cells: Rosetta E. coli (microsomal/membrane fraction)
T1 sequence (O14684 1-152): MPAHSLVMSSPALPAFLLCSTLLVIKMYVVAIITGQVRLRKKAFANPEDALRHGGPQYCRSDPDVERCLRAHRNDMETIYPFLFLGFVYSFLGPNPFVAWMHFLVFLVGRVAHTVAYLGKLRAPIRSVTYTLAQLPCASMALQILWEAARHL
The experiment in a line: mPGES-1 inhibition, HTRF detection of PGE2 (Biological Test). It counts as biochemical. As to the method:
Microsomes from Rosetta E. coli bacteria expressing recombinant human mPGES-1 is dissolved in 0.1 M KPi pH 7.4 buffer containing 2.5 mM GSH. 50 μl of the enzyme is subsequently dispensed in a 384-well plate. 0.5 μl of the inhibitor dissolved in DMSO at is thereafter added to each well and incubated for 25 minutes at room temperature.
Subsequently, 2 μl of PGH2 dissolved in an appropriate solvent is added to each well and after one minute the acidified stop solution containing FeCl2 is added. 4 μl of the total volume is transferred to a separate plate and diluted 750-fold in two separate steps before HTRF detection of PGE2.
The HTRf detection is performed by the use of a commercially available kit from CisBio essentially according to the manufacturer's protocol. Briefly, 10 μl of the diluted sample is transferred to a white 384-well plate. 5 μl of d2 and 5 μl Eu3+-Cryptate labeled anti-PGE2 is added to each well containing samples by the use of a Multidrop. The plate is covered with a plastic self-adhesive film, centrifuged at 1200 rpm for 1 minute and subsequently stored at +4° C. over night.
After over night incubation the fluorescence is measured by the use of an appropriate microplate reader. The fluorescence of europium cryptate, and d2 are measured using the following excitation and emission wavelength, europium cryptate: λmax^ex=307 nm, λmax^em=620 nm and d2: λmax^ex=620 nm, λmax^em=665 nm), respectively. The extent of the specific FRET is measured as a ratio of the emission intensity at 665 nm vs. that at 620 nm. A standard curve using synthetic PGE2 is used to quantify the amount of PGE2 in unknown samples.

For `COCCOc1cc2c(cc1C(=O)NC1CCC(C)(C)CC1)nc(Nc1c(Cl)cncc1Cl)n2C` [Example 671, 2-(3,5-Dichloropyridin-4-ylamino)-N-(4,4-dimethyl-cyclohexyl)-6-(2-methoxy-ethoxy)-1-methyl-1H-benzimidazole-5-carboxamide], the inhibition at 10 µM worked out at 100%.

For `CCOc1cc2[nH]c(Nc3c(Cl)cncc3Cl)nc2cc1C(=O)N[C@H]1CC[C@H](C(F)(F)F)CC1` [Example 690, 2-(3,5-Dichloropyridin-4-ylamino)-N-(trans-4-trifluoromethyl-cyclohex-1-yl)-6-ethoxy-1H-benzimidazole-5-carboxamide], the inhibition at 10 µM is 100%.

On to `CN(C)c1cc2c(cc1C(=O)NC1CCC(C)(C)CC1)nc(Nc1c(Cl)cncc1Cl)n2C` [Example 672, 2-(3,5-Dichloropyridin-4-ylamino)-N-(4,4-dimethyl-cyclohexyl)-6-dimethylamino-1-methyl-1H-benzimidazole-5-carboxamide], for which the inhibition at 10 µM was 100%.

Take `Cc1ccnc(Cl)c1Nc1nc2ccc(C(=O)Nc3cccc(Cl)c3)cc2[nH]1` [Example 521, 2-(2-Chloro-4-methylpyridin-3-ylamino)-N-(3-chlorophenyl)-1H-benzimidazole-5-carboxamide]: the inhibition at 10 µM stood at 95%.

As for `Cn1c(Nc2c(Cl)cncc2Cl)nc2cc(C(=O)NC3CCC(C)(C)CC3)c(F)cc21` [Example 674, 2-(3,5-Dichloropyridin-4-ylamino)-N-(4,4-dimethyl-cyclohex-1-yl)-6-fluoro-1-methyl-1H-benzimidazole-5-carboxamide], the inhibition at 10 µM was determined as 100%.

Regarding `O=C(Nc1ccc(Br)cc1)c1ccc2[nH]c(Nc3ccncc3Cl)nc2c1` [Example 566, N-(4-Bromophenyl)-2-(3-chloropyridin-4-ylamino)-1H-benzimidazole-5-carboxamide], the inhibition at 10 µM is 77%.

As to `CC1(C)CCC(NC(=O)c2cc3nc(Nc4c(Cl)cncc4Cl)[nH]c3cc2F)CC1` [Example 673, 2-(3,5-Dichloro-pyridin-4-yl-amino)-6-fluoro-N-(4,4-dimethyl-cyclohex-1-yl)-1H-benzimidazole-5-carboxamide], the inhibition at 10 µM turned out to be 100%.

With `COc1cc2[nH]c(Nc3c(Cl)cncc3Cl)nc2cc1C(=O)Nc1cc(C(F)(F)F)ccn1` [Example 680, 2-(3,5-Dichloropyridin-4-ylamino)-N-(4-trifluoromethyl-pyridin-2-yl)-6-methoxy-1H-benzimidazole-5-carboxamide], the inhibition at 10 µM is 100%.

Take `Cn1c(Nc2c(Cl)cncc2Cl)nc2cc(C(=O)NC3CCCCC3)ccc21` [Example 547, N-Cyclohexyl-2-(3,5-dichloropyridin-4-ylamino)-1-methyl-1H-benzimidazole-5-carboxamide]: the inhibition at 10 µM was found to be 96%.

For `COc1cc2[nH]c(Nc3c(Cl)cncc3Cl)nc2cc1C(=O)Nc1cc(C(F)(F)F)cc(N(C)C)n1` [Example 692, 2-(3,5-Dichloropyridin-4-ylamino)-N-(6-dimethylamino-4-trifluoromethyl-pyridin-2-yl)-6-methoxy-1H-benzimidazole-5-carboxamide], the inhibition at 10 µM stood at 95%.

On to `Cn1c(Nc2c(Cl)cncc2Cl)nc2cc(C(=O)NC3CCC(C)(C)CC3)ccc21` [Example 435, 2-(3,5-dichloropyridin-4-ylamino)-N-(4,4-dimethylcyclohexyl)-1-methyl-1H-benzimidazole-5-carboxamide], for which the inhibition at 10 µM amounted to 100%.

As for `O=C(Nc1ccc(Br)cc1)c1cc2nc(Nc3c(Cl)cncc3Cl)[nH]c2cc1OC1CCOC1` (stereo not drawn) [Example 659, 2-(3,5-Dichloro-pyridin-4-yl-amino)-6-(tetrahydrofuran-3-yl-oxy)-N-(4-bromo-phenyl)-1H-benzimidazole-5-carboxamide], the inhibition at 10 µM was determined as 98%.
